Numbers after ± are expanded uncertainties.
Conditions: Crystal; DTA

SMILES: O=C1c2ccccc2C(=O)C1c1nc2ccccc2cc1O [1H-indene-1,3(2H)-dione, 2-(3-hydroxy-2-quinolinyl)-]
- Normal melting temperature: 260.6 ± 0.5 °C

From the NIST ThermoML archive (doi:10.1016/j.fluid.2007.07.070)
